According to US9920040B2, “GPR40 agonists for the treatment of type II diabetes” (Janssen Pharmaceutica NV, priority 2015, dated 2018):
Where “and” joins values, the source holds several entries; their conditions need not be identical. Equal values may be shown once.

Assays:
[1] = target: T1, human GPR40 (Homo sapiens, UniProt O14842); experiment: GPR40 calcium flux assay, human GPR40; type: cell-based; conditions: transfected HEK293 cells stably expressing human GPR40; multiple values = repeated testing; read-out: hGPR40 Ca^2+ Assay EC50
T1 construct: expressed in transfected cells
T1 sequence (O14842 whole entry): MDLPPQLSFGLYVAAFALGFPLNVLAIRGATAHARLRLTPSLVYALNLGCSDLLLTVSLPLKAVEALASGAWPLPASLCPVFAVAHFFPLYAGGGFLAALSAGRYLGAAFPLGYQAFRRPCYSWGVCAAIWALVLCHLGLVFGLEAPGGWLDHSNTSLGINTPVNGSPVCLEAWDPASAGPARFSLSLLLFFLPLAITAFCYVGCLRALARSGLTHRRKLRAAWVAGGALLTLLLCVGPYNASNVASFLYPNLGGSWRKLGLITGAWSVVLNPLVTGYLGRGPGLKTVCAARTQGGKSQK
Experimental: (§1) Compounds were tested in a calcium flux assay using transfected HEK293 cells stably expressing either human GPR40 or rat GPR40. Human GPR40 expressing cells were cultured in DMEM-High Glucose media supplemented with 10% fetal bovine serum, 1×L-Glutamine, 1×Penicillin/Streptomycin and 500 μg/mL G418. Rat GPR40 expressing cells were cultured in DMEM-High Glucose media supplemented with 10% fetal bovine serum and 1 μg/mL puromycin. Cells were plated into poly-D-lysine coated 384-well plates and cultured overnight in a 37° C. humidified tissue culture incubator under 5% CO2/[…] atmosphere. On the day of the experiment, the culture media was replaced with assay buffer (HBSS, 20 mM HEPES, 0.1% BSA) and the cells incubated at 37° C. for 1 h. Calcium-sensitive fluorescent dye (Fluo 8 No-Wash Calcium Dye, ABD Bioquest) was then added and the cells incubated for another 30 min at 37° C. followed by 15 min at room temperature while protected from the light. The cell plate and a plate of diluted compounds of Formula (I) were loaded into a fluorescent plate reader that added compounds onto the cells while measuring the fluorescence intensity of each well. The plate reader recorded fluorescence intensity at 1 second intervals for 8 min and provided the data for analysis in an Excel format. EC50 values were calculated using Prism (GraphPad) software.

[2] = target: T2, rat GPR40 (Rattus norvegicus, UniProt Q8K3T4); experiment: GPR40 calcium flux assay, rat GPR40; type: cell-based; conditions: transfected HEK293 cells stably expressing rat GPR40; multiple values = repeated testing; read-out: rGPR40 Ca^2+ Assay EC50
T2 construct: expressed in transfected cells
T2 sequence (Q8K3T4 whole entry): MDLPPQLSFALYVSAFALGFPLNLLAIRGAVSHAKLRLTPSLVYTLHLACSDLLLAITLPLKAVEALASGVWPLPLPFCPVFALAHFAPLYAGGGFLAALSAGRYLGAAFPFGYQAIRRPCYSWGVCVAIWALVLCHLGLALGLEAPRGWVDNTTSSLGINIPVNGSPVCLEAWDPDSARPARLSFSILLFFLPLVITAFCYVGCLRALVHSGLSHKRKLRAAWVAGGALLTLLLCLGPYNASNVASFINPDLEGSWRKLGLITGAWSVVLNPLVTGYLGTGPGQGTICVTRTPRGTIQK
Experimental: as §1

SMILES | EC50 [1] | EC50 [2]
COc1ccc(F)c(-c2onc(COc3cccc([C@@H](CC(=O)O)C4CC4)c3)c2OC2CC(C)(C)C(C)(C)C2)c1 [Cpd 1, (3S)-3-cyclopropyl-3-[3-[[5-(2-fluoro-5-methoxy-phenyl)-4-(3,3,4,4-tetramethylcyclopentoxy)isoxazol-3-yl]methoxy]phenyl]propanoic acid] | 3 nM | 6 nM
COc1cc(-c2onc(COc3cccc([C@@H](CC(=O)O)C4CC4)c3)c2OC2CC(C)(C)CC(C)(C)C2)c(F)cn1 [Cpd 2, (3S)-3-cyclopropyl-3-[3-[[5-(5-fluoro-2-methoxy-4-pyridyl)-4-(3,3,5,5-tetramethylcyclohexoxy)isoxazol-3-yl]methoxy]phenyl]propanoic acid] | 5 nM | 9 nM
COc1cc(-c2onc(COc3cccc([C@@H](CC(=O)O)C4CC4)c3)c2OC2CC(C)(C)C(C)(C)C2)c(F)cn1 [Cpd 4, (3S)-3-cyclopropyl-3-[3-[[5-(5-fluoro-2-methoxy-4-pyridyl)-4-(3,3,4,4-tetramethylcyclopentoxy)isoxazol-3-yl]methoxy]phenyl]propanoic acid] | 5 nM | 10 nM
COc1ccc(F)c(-c2onc(COc3cccc([C@@H](CC(=O)O)C4CC4)c3)c2OCC2CC(C)(C)C2)c1 [Cpd 5, (3S)-3-cyclopropyl-3-[3-[[4-[(3,3-dimethylcyclobutyl)methoxy]-5-(2-fluoro-5-methoxy-phenyl)isoxazol-3-yl]methoxy]phenyl]propanoic acid] | 37 nM and 35 nM and 6 nM | 69 nM and 46 nM and 56 nM
COc1ccc(F)c(-c2onc(CCc3cccc(C(CC(=O)O)C4CC4)c3)c2C2CC2)c1 (stereo not shown) [Cpd 7, 3-cyclopropyl-3-[3-[2-[4-cyclopropyl-5-(2-fluoro-5-methoxy-phenyl)isoxazol-3-yl]ethyl]phenyl]propanoic acid] | 24 nM | 69 nM
COc1cc(-c2onc(COc3cccc([C@@H](CC(=O)O)C4CC4)c3)c2OCC2CC(C)(C)C2)c(F)cn1 [Cpd 8, (3S)-3-cyclopropyl-3-[3-[[4-[(3,3-dimethylcyclobutyl)methoxy]-5-(5-fluoro-2-methoxy-4-pyridyl)isoxazol-3-yl]methoxy]phenyl]propanoic acid] | 113 nM and 103 nM and 27 nM | 44 nM and 144 nM and 143 nM
COc1ccc(F)c(-c2onc(COc3cc(C(CC(=O)O)C4CC4)c(Cl)cn3)c2C2=CCCC2(C)C)c1 (stereo not shown) [Cpd 9, 3-[5-chloro-2-[[4-(5,5-dimethylcyclopenten-1-yl)-5-(2-fluoro-5-methoxy-phenyl)isoxazol-3-yl]methoxy]-4-pyridyl]-3-cyclopropyl-propanoic acid] | 53 nM | 138 nM
COc1cc(-c2scc(COc3cccc([C@@H](CC(=O)O)C4CC4)c3)c2C2=CCCC2(C)C)c2ccsc2c1 [Cpd 10, (3S)-3-cyclopropyl-3-[3-[[4-(5,5-dimethylcyclopenten-1-yl)-5-(6-methoxybenzothiophen-4-yl)-3-thienyl]methoxy]phenyl]propanoic acid] | 53 nM and 35 nM and 34 nM | 91 nM and 89 nM
COc1ccc(F)c(-c2onc(COc3cccc([C@@H](CC(=O)O)C4CC4)c3)c2-c2sccc2C)c1 [Cpd 33, (3S)-3-cyclopropyl-3-[3-[[5-(2-fluoro-5-methoxy-phenyl)-4-(3-methyl-2-thienyl)isoxazol-3-yl]methoxy]phenyl]propanoic acid] | 215 nM and 178 nM | 
COc1ccc(F)c(-c2onc(COc3cccc([C@@H](CC(=O)O)C4CC4)c3)c2-c2ccccc2)c1 [Cpd 34, (3S)-3-cyclopropyl-3-[3-[[5-(2-fluoro-5-methoxy-phenyl)-4-phenyl-isoxazol-3-yl]methoxy]phenyl]propanoic acid] | 168 nM and 140 nM | 
COc1ccc(F)c(-c2onc(COc3cccc([C@@H](CC(=O)O)C4CC4)c3)c2CC(C)C)c1 [Cpd 35, (3S)-3-cyclopropyl-3-[3-[[5-(2-fluoro-5-methoxy-phenyl)-4-isobutyl-isoxazol-3-yl]methoxy]phenyl]propanoic acid] | 8 nM and 6 nM | 
COc1ccc(F)c(-c2onc(COc3cccc([C@@H](CC(=O)O)C4CC4)c3)c2C=C(C)C)c1 [Cpd 36, (3S)-3-cyclopropyl-3-[3-[[5-(2-fluoro-5-methoxy-phenyl)-4-(2-methylprop-1-enyl)isoxazol-3-yl]methoxy]phenyl]propanoic acid] | 30 nM and 26 nM | 
COc1ccc(F)c(-c2onc(COc3cccc([C@@H](CC(=O)O)C4CC4)c3)c2C2CC2)c1 [Cpd 37, (3S)-3-cyclopropyl-3-[3-[[4-cyclopropyl-5-(2-fluoro-5-methoxy-phenyl)isoxazol-3-yl]methoxy]phenyl]propanoic acid] | 65 nM and 55 nM | 
COc1ccc(F)c(-c2onc(COc3cccc([C@@H](CC(=O)O)C4CC4)c3)c2OCC(C)C)c1 [Cpd 39, (3S)-3-cyclopropyl-3-[3-[[5-(2-fluoro-5-methoxy-phenyl)-4-isobutoxy-isoxazol-3-yl]methoxy]phenyl]propanoic acid] | 5 nM and 4 nM | 
COc1ccc(F)c(-c2onc(COc3cccc([C@@H](CC(=O)O)C4CC4)c3)c2OC2CCCC2)c1 [Cpd 40, (3S)-3-[3-[[4-(cyclopentoxy)-5-(2-fluoro-5-methoxy-phenyl)isoxazol-3-yl]methoxy]phenyl]-3-cyclopropyl-propanoic acid] | 8 nM and 7 nM | 
COc1ccc(F)c(-c2onc(COc3cccc([C@@H](CC(=O)O)C4CC4)c3)c2OCC2CC2)c1 [Cpd 41, (3S)-3-cyclopropyl-3-[3-[[4-(cyclopropylmethoxy)-5-(2-fluoro-5-methoxy-phenyl)isoxazol-3-yl]methoxy]phenyl]propanoic acid] | 14 nM and 12 nM | 
COc1ccc(F)c(-c2onc(COc3cccc([C@@H](CC(=O)O)C4CC4)c3)c2OC(C)C)c1 [Cpd 42, (3S)-3-cyclopropyl-3-[3-[[5-(2-fluoro-5-methoxy-phenyl)-4-isopropoxy-isoxazol-3-yl]methoxy]phenyl]propanoic acid] | 19 nM and 15 nM | 
COc1ccc(F)c(-c2onc(COc3cccc([C@@H](CC(=O)O)C4CC4)c3)c2OC2CCC2)c1 [Cpd 43, (3S)-3-[3-[[4-(cyclobutoxy)-5-(2-fluoro-5-methoxy-phenyl)isoxazol-3-yl]methoxy]phenyl]-3-cyclopropyl-propanoic acid] | 11 nM and 9 nM | 
COc1ccc(F)c(-c2onc(COc3cccc([C@@H](CC(=O)O)C4CC4)c3)c2-c2ccc(C(C)(C)C)s2)c1 [Cpd 45, (3S)-3-[3-[[4-(5-tert-butyl-2-thienyl)-5-(2-fluoro-5-methoxy-phenyl)isoxazol-3-yl]methoxy]phenyl]-3-cyclopropyl-propanoic acid] | 23 nM and 21 nM | 
COc1ccc(F)c(-c2onc(COc3cccc([C@@H](CC(=O)O)C4CC4)c3)c2OC2CCCCC2)c1 [Cpd 46, (3S)-3-[3-[[4-(cyclohexoxy)-5-(2-fluoro-5-methoxy-phenyl)isoxazol-3-yl]methoxy]phenyl]-3-cyclopropyl-propanoic acid] | 7 nM and 5 nM | 
COc1cc(-c2onc(COc3cccc([C@@H](CC(=O)O)C4CC4)c3)c2OCC(C)C)c(F)cn1 [Cpd 47, (3S)-3-cyclopropyl-3-[3-[[5-(5-fluoro-2-methoxy-4-pyridyl)-4-isobutoxy-isoxazol-3-yl]methoxy]phenyl]propanoic acid] | 20 nM and 16 nM | 
COc1cc(-c2onc(COc3cccc([C@@H](CC(=O)O)C4CC4)c3)c2OC2CCCCC2)c(F)cn1 [Cpd 48, (3S)-3-[3-[[4-(cyclohexoxy)-5-(5-fluoro-2-methoxy-4-pyridyl)isoxazol-3-yl]methoxy]phenyl]-3-cyclopropyl-propanoic acid] | 24 nM and 21 nM | 
COc1ccc(F)c(-c2onc(COc3cccc([C@@H](CC(=O)O)C4CC4)c3)c2OCCC(F)(F)F)c1 [Cpd 49, (3S)-3-cyclopropyl-3-[3-[[5-(2-fluoro-5-methoxy-phenyl)-4-(3,3,3-trifluoropropoxy)isoxazol-3-yl]methoxy]phenyl]propanoic acid] | 67 nM and 56 nM | 
CCOc1c(COc2cccc([C@@H](CC(=O)O)C3CC3)c2)noc1-c1cc(OC)ccc1F [Cpd 50, (3S)-3-cyclopropyl-3-[3-[[4-ethoxy-5-(2-fluoro-5-methoxy-phenyl)isoxazol-3-yl]methoxy]phenyl]propanoic acid] | 110 nM and 81 nM | 
CCOc1c(COc2cccc([C@@H](CC(=O)O)C3CC3)c2)noc1-c1cc(OC)ncc1F [Cpd 51, (3S)-3-cyclopropyl-3-[3-[[4-ethoxy-5-(5-fluoro-2-methoxy-4-pyridyl)isoxazol-3-yl]methoxy]phenyl]propanoic acid] | 180 nM and 140 nM | 
COc1cc(-c2onc(COc3cccc([C@@H](CC(=O)O)C4CC4)c3)c2C=C(C)C)c(F)cn1 [Cpd 52, (3S)-3-cyclopropyl-3-[3-[[5-(5-fluoro-2-methoxy-4-pyridyl)-4-(2-methylprop-1-enyl)isoxazol-3-yl]methoxy]phenyl]propanoic acid] | 51 nM and 45 nM | 
